Data: patent US20130261137A1, “Methods, Compounds and Compositions Relating to Activating a Latent Virus” (ULC BUSINESS PLC, priority 2010, published 2013)

Key:
JSC-1 cells = experiment: Cell viability assay (CellTiter-Glo); conditions: for GCV cytotoxicity after pre-treatment with compound: pre-treatment 24 h (UCLB-15026 800 nM, taxol 80 nM), then GCV 20 or 100 μM, 48 and 72 h
[1] = tested on: HIV-1 LTR in J-Lat A72 cells; experiment: HIV-1 LTR assay, GFP expression in J-LAT A72 cells; conditions: for reduction of HIV LTR induction by 15026 compared to DMSO control: 15026 0.8 μM; for HIV-1 LTR induction by other antimicrotubule agents: taxol 0.8 μM, vinblastine 0.8 μM, ERK dependent (U0126)
[2] = tested on: KSHV RTA in JSC-1 PYFP cells
KSHV RTA in JSC-1 cells = assay type: cell-based
[3] = tested on: KSHV (rKSHV.219) in JSC-1 cells; assay type: cell-based
JSC-1 PYFP cells = conditions: U0126 10 μM, 40 h
HIV-1 LTR in U1 cells = experiment: HIV-1 LTR induction assay, TAR RNA qPCR in U1 cells; conditions: 15026 4 μM
HIV-1 LTR in ACH2 cells = experiment: HIV-1 LTR induction assay, TAR RNA qPCR in ACH2 cells; conditions: 15026 4 μM
[4] = tested on: microtubule network in JSC-1 cells; experiment: Confocal immunofluorescence microscopy of microtubule network; assay type: cell-based; conditions: 100 μM, 16 h
Description: JSC-1 cells were grown on coverslips coated with […] (Sigma) with DMSO or UCLB-15026 (100 μM) for 16 h. JSC-1 cells were then fixed in 3% paraformaldehyde, rinsed and permeabilized in 0.02% Triton-PBS. This was followed by blocking in 2% FCS-PBS, staining with anti-tubulin antibody (Sigma), washed, and then incubated with Alexa-488 conjugated goat anti-mouse secondary antibody (Molecular Probes) before being mounted onto slides using VectaShield mounting medium containing DAPI. Images were taken using confocal microscope (Leica).

[5] = tested on: KSHV RTA in JSC-1 PLuc cells; assay type: cell-based
[6] = tested on: HIV-1 LTR of subtype A/G in LGIT cells; experiment: HIV-1 LTR induction, GFP in LGIT cells, LTR subtype A/G; conditions: 24 hours; ERK-dependent (with or without U0126 10 μM)
[7] = tested on: HIV-1 LTR of subtype A in LGIT cells; experiment: HIV-1 LTR induction, GFP in LGIT cells, LTR subtype A; conditions: 24 hours; ERK-dependent (with or without U0126 10 μM)
cells (cell cycle) = conditions: reported for the compound; cited from earlier work
[8] = tested on: HIV-1 LTR of subtype C in LGIT cells; experiment: HIV-1 LTR induction, GFP in LGIT cells, LTR subtype C; conditions: 24 hours; ERK-dependent (with or without U0126 10 μM)
[9] = tested on: KSHV ORF 29 in JSC-1 cells; experiment: Semi-quantitative RT-PCR of KSHV late gene ORF 29 in JSC-1; assay type: cell-based; conditions: different concentrations
Source text: Briefly, RNA was extracted from 2×10^6 cells with TRIzol (Invitrogen) and treated with DNase (Ambion), followed by phenol extraction and ethanol precipitation. Serial dilution (3×10-fold) of oligonucleotide dT (Qiagen)-primed cDNA was used for PCR amplification (Promega) of KSHV ORF 29 using forward ([…]; SEQ ID NO. 1) and reverse ([…]; SEQ ID NO. 2) primers. All samples were normalized by PCR amplification of beta-2 microglobulin (β2M) using serially diluted cDNA with forward ([…]; SEQ ID NO. 3) and reverse ([…]; SEQ ID NO. 4) primers. The PCR cycle consisting of 95° C. for 30 seconds, 50° C. for 30 seconds, and 72° C. for 30 seconds was repeated 36 times for ORF 29, and 28 times for β2M. Both set of primers amplify across splice junction and the sizes (in bp) of the expected products are: ORF 29 (cDNA—399, DNA—3650) and β2M (cDNA—301, DNA—2178).

tubulin = conditions: reported, reference 21; read-out: IC50 inhibiting tubulin polymerization; cited from earlier work
[10] = tested on: KSHV RTA in BCBL-1 PLuc cells; assay type: cell-based
[11] = tested on: HIV-1 LTR in PBMCs from HIV-1 positive individuals; experiment: Ex vivo HIV-1 LTR induction assay, TAR RNA qPCR in PBMCs from HIV-1 positive individuals; assay type: cell-based; conditions: 100 μM, 24 h

With `Nc1nc(O)c2ncn(COC(CO)CO)c2n1` [GCV, ganciclovir] the “effect of GCV alone on JSC-1 proliferation” value (JSC-1 cells; DMSO 24 h, then GCV 20 μM or 100 μM, 24, 48, 72 h) was “no detrimental effect”.
For `O=S(=O)(NCCNC/C=C/c1ccc(Br)cc1)c1cccc2cnccc12` [H89], the “reduction of HIV LTR induction by 15026 compared to DMSO control” value [1] was 80% and the “reduction of KSHV RTA induction by 15026 compared to DMSO control” value ([2]; 15026 0.8 μM) was 35%.
In the case of `Nc1ncnc2c1ncn2[C@@H]1O[C@@H]2COP(O)(=S)O[C@H]2[C@H]1O` (some centres unmarked) [Rp-cAMP], the “reduction of HIV LTR induction by 15026 compared to DMSO control” value [1] is reported as “about 40%”.
For `CCCC(=O)[O-].[Na+]` [SB, sodium butyrate], the “KSHV RTA induction and induction kinetics (western blot)” value (KSHV RTA in JSC-1 cells) was “delayed-kinetics”.
For `CCCCCCCCCCCCCC(=O)O[C@@H]1[C@@H](C)[C@@]2(O)[C@@H](C=C(CO)C[C@]3(O)C(=O)C(C)=C[C@@H]23)[C@@H]2C(C)(C)[C@]12OC(C)=O` [TPA, 12-O-tetradecanoyl-phorbol-13-acetate], the “KSHV RTA induction and induction kinetics (western blot)” value (KSHV RTA in JSC-1 cells) was “immediate-kinetics”, the “exposure required for KSHV induction” value (KSHV RTA in JSC-1 cells) was less than 1 h and the “% RFP-positive cells” value [3] was −1.8%.
In the case of `N#CC(=C(/N)Sc1ccccc1N)/C(C#N)=C(\N)Sc1ccccc1N` [U0126], the “cell viability (trypan blue exclusion)” value (JSC-1 PYFP cells) is reported as “no significant effect on cell viability”, the “effect of ERK inhibitor on LTR induction by 15026 (GFP)” value ([1]; U0126 10 μM, 15026 4 μM) is reported as “inhibited 15026 activity” and the “effect of ERK inhibitor on LTR induction by 15026 (TAR RNA)” value (HIV-1 LTR in U1 cells; U0126 10 μM) is reported as “inhibited 15026 activity”. The “effect of ERK inhibitor on LTR induction by 15026 (TAR RNA)” value (HIV-1 LTR in ACH2 cells; U0126 10 μM) was “inhibited 15026 activity”.
With `COc1ccc(-c2csc3c2-n2cccc2C3=O)cc1` [UCLB-15026] the “effect on microtubule network (anti-tubulin immunofluorescence)” value [4] was “disrupts microtubule network”, the “RTA expression (% RLU normalized to TPA control/10^5 cells)” value [5] was “activate RTA expression” and the “HIV-1 LTR activity (GFP expression)” value ([1]; 15026 4 μM, 24 hours) was “induced LTR activity”. For the same compound, the “LTR-mediated GFP expression” value ([1]; UCLB-15026 at different concentrations, 24 or 40 h) was “substantially induced”, the “HIV-1 LTR activity (TAR RNA expression)” value (HIV-1 LTR in U1 cells) was “induced LTR activity” and the “GFP expression driven by LTR of subtype A/G” value [6] was “induced GFP expression”. For the same compound, the “GFP expression driven by LTR of subtype A” value [7] was “induced GFP expression”, the cell cycle effect (cells (cell cycle)) was “accumulated in the G2/M phases of cell cycle” and the “HIV-1 LTR activity (TAR RNA expression)” value (HIV-1 LTR in ACH2 cells) was “induced LTR activity”. For the same compound, the “KSHV reactivation (% YFP-positive cells normalized to TPA control)” value [2] was “reactivated KSHV to similar levels”, the “concentration range of half their maximal activities (KSHV reactivation)” value [2] was “nanomolar range” and the “GFP expression driven by LTR of subtype C” value [8] was “induced GFP expression”. For the same compound, the “expression of KSHV late gene ORF 29” value [9] was “dose-dependent expression”, the IC50 (tubulin) was 2900 nM and the “GCV cytotoxicity after pre-treatment with compound” value (JSC-1 cells) was “enhanced GCV cytotoxicity”. For the same compound, the “RTA induction (% RLU normalized to TPA control/10^5 cells)” value [10] was “induced RTA”, the “TAR RNA copies compared with DMSO, three PBMC cultures” value [11] was “higher TAR RNA copies in two out of three PBMC cultures” and the “TAR RNA copies compared with DMSO, volunteer 1” value ([11]; PBMC culture) was “about 5 fold”. The “TAR RNA copies compared with DMSO, volunteer 2” value ([11]; PBMC culture) was “about 200 fold”.
For `O=c1c(-c2ccc(O)cc2)coc2cc(O)cc(O)c12` [genistein], the “HIV-1 LTR activity (% GFP-positive cells normalized to TPA)” value ([1]; genistein 100 μM, 24 h post-treatment) was “induction of HIV-1 LTR activity”, the “HIV-1 LTR induction by other antimicrotubule agents” value (“HIV-1 LTR induction” below) ([1]; genistein 100 μM) was “can induce” and the “KSHV RTA induction by other antimicrotubule agents” value [2] was “can induce”. For the same compound, the “KSHV lytic cycle induction (% YFP-positive cells normalized to TPA)” value [2] was “can reactivate KSHV”.
With `CC(=O)O[C@H]1C(=O)[C@@]2(C)[C@H]([C@H](OC(=O)c3ccccc3)[C@]3(O)C[C@H](OC(=O)[C@H](O)[C@@H](NC(=O)c4ccccc4)c4ccccc4)C(C)=C1C3(C)C)[C@]1(OC(C)=O)CO[C@@H]1C[C@@H]2O` [taxol, paclitaxel] the “RTA expression (% RLU normalized to TPA control/10^5 cells)” value [5] was “activate RTA expression”, the “HIV-1 LTR induction” value ([1]; genistein 100 μM) was “induce transcriptional activities” and the “KSHV reactivation (% YFP-positive cells normalized to TPA control)” value [2] was “reactivated KSHV to similar levels”. The “concentration range of half their maximal activities (KSHV reactivation)” value [2] was “nanomolar range”, the “expression of KSHV late gene ORF 29” value [9] was “dose-dependent expression” and the “GCV cytotoxicity after pre-treatment with compound” value (JSC-1 cells) was “small but statistically significant increase in cell cytotoxicity”. For the same compound, the “RTA induction (% RLU normalized to TPA control/10^5 cells)” value [10] was “induced RTA”.
For `CC[C@]1(O)C[C@@H]2CN(CCc3c([nH]c4ccccc34)[C@@](C(=O)OC)(c3cc4c(cc3OC)N(C)[C@H]3[C@@](O)(C(=O)OC)[C@H](OC(C)=O)[C@]5(CC)C=CCN6CC[C@]43[C@@H]65)C2)C1` [vinblastine], the “HIV-1 LTR induction” value ([1]; genistein 100 μM) was “can induce” and the “KSHV RTA induction by other antimicrotubule agents” value [2] was “can induce”.
